What is called IC50 is the midpoint of a concentration-inhibition curve. The low end stands for inhibition by little substance, the high end for a need for much substance.

Our source for the IC50 values is patent US4738986A, “N-(3-phenoxycinnamyl)acetohydroxamic acid” (Burroughs Wellcome Co., priority 1985, dated 1988).

For one test, the target named is T1, 5-lipoxygenase (LO) (Homo sapiens, UniProt P09917).
T1 construct: The leukocytes were homogenised and 5 μM arachidonic acid added; endogenous in cells; host or cells: leukocytes from blood of normal aspirin-free volunteers, separated from red cells and platelets by centrifugation, homogenised
T1 sequence (P09917 1-674): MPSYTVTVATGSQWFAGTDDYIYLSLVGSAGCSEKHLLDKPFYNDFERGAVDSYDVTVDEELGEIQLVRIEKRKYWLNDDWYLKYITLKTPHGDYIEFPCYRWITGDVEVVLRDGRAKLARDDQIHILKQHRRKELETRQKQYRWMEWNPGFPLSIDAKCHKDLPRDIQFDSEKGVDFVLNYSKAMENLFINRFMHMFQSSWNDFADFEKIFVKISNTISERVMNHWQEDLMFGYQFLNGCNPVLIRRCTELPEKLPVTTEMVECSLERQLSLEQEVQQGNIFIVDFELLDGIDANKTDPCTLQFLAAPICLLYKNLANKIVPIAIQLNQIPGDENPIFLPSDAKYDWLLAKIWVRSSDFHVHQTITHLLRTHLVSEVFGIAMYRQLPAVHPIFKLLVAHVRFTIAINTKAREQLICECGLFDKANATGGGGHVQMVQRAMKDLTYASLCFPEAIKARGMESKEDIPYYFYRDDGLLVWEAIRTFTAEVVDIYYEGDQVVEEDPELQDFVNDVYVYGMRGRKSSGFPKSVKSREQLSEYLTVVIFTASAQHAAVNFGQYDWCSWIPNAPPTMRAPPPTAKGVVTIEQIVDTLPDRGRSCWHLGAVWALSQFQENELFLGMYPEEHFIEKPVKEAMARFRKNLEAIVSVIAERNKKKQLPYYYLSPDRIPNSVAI
The test is described as follows: In vitro inhibition of 5-lipoxygenase (LO): leukotriene B4 from arachidonic acid in leukocyte homogenate, radioimmunoassay. The test is classed as biochemical. The conditions noted are these: volunteers' blood, 5 μM arachidonic acid, 37°, 5 minutes, leukotriene B4 RIA. Here is the method:
(§1) In vitro inhibition of 5-lipoxygenase (LO) and Cyclooxygenase (CO)
(§2) Blood from normal aspirin-free volunteers was centrifuged to separate leukocytes from red cells and platelets. The leukocytes were homogenised and 5 μM arachidonic acid added, followed by incubation at 37° for 5 minutes. The reaction was stopped by boiling. Radioimmunoassay was conducted for leukotriene B4 (an LO product) and […] (a CO product). Results were calculated as IC50 μM activity against each enzyme and as listed below.

The next test addresses T2, Cyclooxygenase (CO) (Homo sapiens, UniProt P23219).
T2 construct: The leukocytes were homogenised and 5 μM arachidonic acid added; endogenous in cells; host or cells: leukocytes from blood of normal aspirin-free volunteers, separated from red cells and platelets by centrifugation, homogenised
Nature of the test: In vitro inhibition of cyclooxygenase (CO): thromboxane release from arachidonic acid in leukocyte homogenate, radioimmunoassay. The test is classed as biochemical. As to conditions: volunteers' blood, 5 μM arachidonic acid, 37°, 5 minutes, thromboxane B4 RIA. As to the method: as §1, §2

T2 sequence (P23219 24-599): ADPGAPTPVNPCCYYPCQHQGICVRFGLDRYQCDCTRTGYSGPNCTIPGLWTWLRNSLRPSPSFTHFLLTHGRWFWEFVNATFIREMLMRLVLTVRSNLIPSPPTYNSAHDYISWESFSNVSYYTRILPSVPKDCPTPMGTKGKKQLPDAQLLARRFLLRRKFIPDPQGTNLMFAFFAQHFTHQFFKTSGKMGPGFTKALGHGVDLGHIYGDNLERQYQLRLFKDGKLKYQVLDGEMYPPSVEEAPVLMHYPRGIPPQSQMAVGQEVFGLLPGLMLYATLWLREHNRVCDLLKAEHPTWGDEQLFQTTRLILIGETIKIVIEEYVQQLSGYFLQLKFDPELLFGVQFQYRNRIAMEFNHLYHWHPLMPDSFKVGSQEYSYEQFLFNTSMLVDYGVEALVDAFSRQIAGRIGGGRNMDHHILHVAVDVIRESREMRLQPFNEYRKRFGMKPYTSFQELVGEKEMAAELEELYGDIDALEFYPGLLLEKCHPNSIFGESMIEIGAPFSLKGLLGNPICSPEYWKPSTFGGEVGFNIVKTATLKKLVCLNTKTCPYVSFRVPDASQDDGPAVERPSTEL

As for “3-Phenoxy-N-methylcinnamohydroxamic Acid [Example 1]”, the IC50 on 5-lipoxygenase (LO) is below 0.1 µM; at Cyclooxygenase (CO) it was 3 µM.
